From US20230227447A1, “BENZYLAMINE DERIVATIVES AS DDRS INHIBITORS” (CHIESI FARMACEUTICI S.P.A., priority 2020, published 2023)
Where a name gives a salt, the structure may show the parent alone.

How the values were obtained:
DDR1 [1] = target: T1, DDR1 (Homo sapiens, UniProt Q08345); test: DDR1 cell based assay (PathHunter U2OS DDR1 assay); design: host or cells: U2OS-DDR1; conditions: U2OS-DDR1 cells, bovine Type II Collagen 20 μg/ml, luminescence
Method: The inhibition of DDR1 receptor activation by compounds was evaluated by PathHunter® U2OS DDR1 assay (Eurofins DiscoverX), according to the manufacturer's instructions. Briefly, U2OS-DDR1 cells were seeded in white 384-well plates at a density of 5000 cells/well and incubated for 2 hours at 37° C. and 5% CO2. Cells were then treated with compounds at different concentrations and incubated for 30 minutes, before stimulation with bovine Type II Collagen 20 μg/ml and incubation overnight at 37° C. and 5% CO2. PathHunter Detection Reagents were prepared according to the protocol provided by DiscoverX and 20 μl/well of this mix were added to each well. After incubating the plates for 1 hour at room temperature in the dark, luminescence signal was acquired with a plate reader. Raw data were normalized to vehicle control (0% for normalization) and positive control (100% for normalization; cells treated with 20 μg/ml collagen II) and IC50 parameters were calculated in GraphPad Prism 8.0 software, using sigmoidal dose-response curve fitting with variable slope.

DDR1 [2] = target: T1, DDR1; test: DDR1 binding assay (LanthaScreen Europium Kinase Binding assay); design: purchased Carna Biosciences; conditions: 5 nM DDR1, 20 nM Kinase Tracer 178, 1 hour at room temperature; Ki from IC50 by Cheng-Prusoff
Method: (§1) DDR1 and DDR2 binding assays were performed using Life Technologies LanthaScreen™ Europium Kinase Binding assay. The compounds were incubated with 5 nM DDR1 (Carna Biosciences) or 5 nM DDR2 (Life Technologies) for 1 hour at room temperature in white 384-well OptiPlate (PerkinElmer), containing 20 nM or 10 nM Kinase Tracer 178 respectively and 2 nM Europium labelled anti-GST antibody (Life Technologies) in assay buffer (50 mM HEPES pH 7.5, 10 mM MgCl2, 1 mM EGTA and 0.01% BRIJ35).
(§2) The ratio of fluorescence emission 665 nm/615 nm after excitation at 340 nm was obtained using the Tecan Spark 20M plate reader. IC50 values were determined in GraphPad Prism 7.0 software, using 4 parameter model: log(inhibitor) vs. response. IC50 values were converted in Ki using the Cheng-Prusoff equation (Ki=IC50/(1+[Tracer]/Kd).

DDR2 [3] = target: T2, DDR2 (Homo sapiens, UniProt Q16832); test: DDR2 binding assay (LanthaScreen Europium Kinase Binding assay); design: purchased Life Technologies; conditions: 5 nM DDR2, 10 nM Kinase Tracer 178, 1 hour at room temperature; Ki from IC50 by Cheng-Prusoff
T2 sequence (Q16832 22-855): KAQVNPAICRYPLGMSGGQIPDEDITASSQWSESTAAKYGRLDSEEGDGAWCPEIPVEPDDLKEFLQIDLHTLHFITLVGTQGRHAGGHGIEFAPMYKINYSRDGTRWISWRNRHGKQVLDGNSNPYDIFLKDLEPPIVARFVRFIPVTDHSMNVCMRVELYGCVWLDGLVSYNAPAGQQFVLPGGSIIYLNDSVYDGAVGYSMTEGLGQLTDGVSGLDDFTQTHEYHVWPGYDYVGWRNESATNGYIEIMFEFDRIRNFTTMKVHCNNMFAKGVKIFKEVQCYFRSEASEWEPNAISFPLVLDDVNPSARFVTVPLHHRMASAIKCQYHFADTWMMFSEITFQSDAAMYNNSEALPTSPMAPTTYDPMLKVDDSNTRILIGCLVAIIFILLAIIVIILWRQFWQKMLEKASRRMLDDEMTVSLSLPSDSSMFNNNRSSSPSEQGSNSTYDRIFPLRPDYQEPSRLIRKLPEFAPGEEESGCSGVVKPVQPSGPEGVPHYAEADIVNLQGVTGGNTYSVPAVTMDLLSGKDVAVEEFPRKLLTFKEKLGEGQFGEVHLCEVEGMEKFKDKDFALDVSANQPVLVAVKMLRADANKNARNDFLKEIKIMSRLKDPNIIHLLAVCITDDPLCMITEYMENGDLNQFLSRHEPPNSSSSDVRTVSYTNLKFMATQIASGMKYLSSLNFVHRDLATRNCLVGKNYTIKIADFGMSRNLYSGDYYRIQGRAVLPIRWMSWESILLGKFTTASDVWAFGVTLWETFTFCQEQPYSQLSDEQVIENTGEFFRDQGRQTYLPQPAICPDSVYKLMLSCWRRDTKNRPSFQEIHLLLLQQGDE
Method: as §1, §2

DDR2 [4] = target: T2, DDR2; test: DDR2 cell based assay (phospho-ELISA in HEK293T-DDR2 recombinant cells); design: expressed in transfected cells; host or cells: HEK293T-DDR2 recombinant cells; conditions: bovine Type II Collagen 50 μg/ml
Method: The inhibition of DDR2 phosphorylation by compounds was evaluated in HEK293T-DDR2 recombinant cells by phospho-ELISA assay. Briefly, HEK293T-DDR2 cells were seeded in poly-D-lysine-coated 24-well plates at a density of 250.000 cells/well and incubated for 1.5 hours at 37° C. and 5% CO2 in DMEM+10% FBS. After that, the medium was changed to serum-free DMEM and cells were incubated for 3 hours. Then. test compounds were added at different concentrations 30 minutes before stimulation with bovine Type II Collagen at 50 μg/ml for further 3 hours. For DDR2 phospho-ELISA assay (DuoSet IC Human Phospho-DDR2; R&D Systems), protein extracts were obtained by adding 60 μl/well of lysis buffer prepared according to the manufacturer's instructions. Protein concentration in the samples was determined by BCA assay and the levels of phospho-DDR2 were determined following R&D Systems indications. Raw data were normalized to maximal inhibition control (0% for normalization) and positive control (100% for normalization; cells treated with […] collagen II) and IC50 parameters were calculated in GraphPad Prism 8.0 software, using sigmoidal dose-response curve fitting with variable slope.

T1 sequence (Q08345 19-913): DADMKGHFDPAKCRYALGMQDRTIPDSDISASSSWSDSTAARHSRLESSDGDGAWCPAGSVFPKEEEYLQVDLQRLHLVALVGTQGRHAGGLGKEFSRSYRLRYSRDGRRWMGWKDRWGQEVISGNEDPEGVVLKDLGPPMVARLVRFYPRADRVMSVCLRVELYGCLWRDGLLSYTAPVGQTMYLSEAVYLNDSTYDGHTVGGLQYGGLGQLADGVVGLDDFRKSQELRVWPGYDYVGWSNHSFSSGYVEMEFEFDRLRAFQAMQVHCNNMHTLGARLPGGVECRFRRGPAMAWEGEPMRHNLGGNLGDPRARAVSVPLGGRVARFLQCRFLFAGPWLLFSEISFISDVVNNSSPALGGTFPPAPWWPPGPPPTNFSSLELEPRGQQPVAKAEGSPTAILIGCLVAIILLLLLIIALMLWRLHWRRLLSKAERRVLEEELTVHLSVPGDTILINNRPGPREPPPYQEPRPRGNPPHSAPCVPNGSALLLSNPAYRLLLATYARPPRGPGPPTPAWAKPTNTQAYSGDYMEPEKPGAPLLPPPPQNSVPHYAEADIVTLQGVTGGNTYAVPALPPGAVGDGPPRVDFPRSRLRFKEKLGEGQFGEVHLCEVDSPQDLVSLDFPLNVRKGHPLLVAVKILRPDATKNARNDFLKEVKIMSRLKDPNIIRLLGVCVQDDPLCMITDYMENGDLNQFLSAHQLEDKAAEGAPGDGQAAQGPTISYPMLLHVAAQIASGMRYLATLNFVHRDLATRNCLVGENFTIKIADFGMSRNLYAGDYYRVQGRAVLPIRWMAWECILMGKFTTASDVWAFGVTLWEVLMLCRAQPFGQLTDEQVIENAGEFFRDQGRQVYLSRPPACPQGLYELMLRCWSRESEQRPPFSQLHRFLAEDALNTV

IC50 (DDR1 [1]) [µM] | Ki (DDR1 [2]) [µM] | Ki (DDR2 [3]) [µM] | IC50 (DDR2 [4]) [µM] | Compound
< 0.01 | < 0.03 | < 0.03 | 0.01 to 0.015 | Cc1cn(-c2cc(NC(=O)c3ccc(C)c(CNc4cncnc4)c3)cc(C(F)(F)F)c2)cn1 [Example 20, 4-methyl-N-(3-(4-methyl-1H-imidazol-1-yl)-5-(trifluoromethyl)phenyl)-3-((pyrimidin-5-ylamino)methyl)benzamide]
 | < 0.03 | < 0.03 |  | Cc1cn(-c2cc(NC(=O)c3ccc(C)c(CNC(=O)c4cnc5ccccn45)c3)cc(C(F)(F)F)c2)cn1 [Example 22, N-(2-methyl-5-((3-(4-methyl-1H-imidazol-1-yl)-5-(trifluoromethyl)phenyl)carbamoyl)benzyl)imidazo[1,2-a]pyridine-3-carboxamide]
 | < 0.03 | < 0.03 |  | CNC(=O)c1cc(NCc2cc(C(=O)Nc3cc(-n4cnc(C)c4)cc(C(F)(F)F)c3)ccc2C)ccn1 [Example 23, N-methyl-4-((2-methyl-5-((3-(4-methyl-1H-imidazol-1-yl)-5-(trifluoromethyl)phenyl)carbamoyl)benzyl)amino)picolinamide]
 | < 0.03 | < 0.03 |  | CNC(=O)c1cc(NCc2cc(C(=O)Nc3cc(CN4CCN(C)CC4)cc(C(F)(F)F)c3)ccc2C)ccn1 [Example 24, N-methyl-4-((2-methyl-5-((3-((4-methylpiperazin-1-yl)methyl)-5-(trifluoromethyl)phenyl)carbamoyl)benzyl)amino)picolinamide]
 | < 0.03 | < 0.03 |  | Cc1cn(-c2cc(NC(=O)c3ccc(C)c(CNC(=O)c4cnc5[nH]ccc5c4)c3)cc(C(F)(F)F)c2)cn1 [Example 25, N-(2-methyl-5-((3-(4-methyl-1H-imidazol-1-yl)-5-(trifluoromethyl)phenyl)carbamoyl)benzyl)-1H-pyrrolo[2,3-b]pyridine-5-carboxamide]
 | < 0.03 | < 0.03 |  | Cc1ccc(C(=O)Nc2cc(CN3CCN(C)CC3)cc(C(F)(F)F)c2)cc1CNC(=O)c1cnc2[nH]ccc2c1 [Example 26, N-(2-methyl-5-((3-((4-methylpiperazin-1-yl)methyl)-5-(trifluoromethyl)phenyl)carbamoyl)benzyl)-1H-pyrrolo[2,3-b]pyridine-5-carboxamide]
 | 0.3 to 1 | 0.3 to 1 |  | CC(C)c1ccc(C(=O)Nc2cc(CN3CCN(C)CC3)cc(C(F)(F)F)c2)cc1CNC(=O)c1cnc2[nH]ccc2c1 [Example 27, N-(2-isopropyl-5-((3-((4-methylpiperazin-1-yl)methyl)-5-(trifluoromethyl)phenyl)carbamoyl)benzyl)-1H-pyrrolo[2,3-b]pyridine-5-carboxamide]
 | 0.3 to 1 | 0.3 to 1 |  | CCCc1ccc(C(=O)Nc2cc(CN3CCN(C)CC3)cc(C(F)(F)F)c2)cc1CNC(=O)c1cnc2ccccn12 [Example 28, N-(5-((3-((4-methylpiperazin-1-yl)methyl)-5-(trifluoromethyl)phenyl)carbamoyl)-2-propylbenzyl)imidazo[1,2-a]pyridine-3-carboxamide formate salt]
 | < 0.03 | 0.03 to 0.3 |  | CCCc1ccc(C(=O)Nc2cc(CN3CCN(C)CC3)cc(C(F)(F)F)c2)cc1CNc1cncnc1 [Example 29, N-(3-((4-methylpiperazin-1-yl)methyl)-5-(trifluoromethyl)phenyl)-4-propyl-3-((pyrimidin-5-ylamino)methyl)benzamide]
 | < 0.03 | < 0.03 |  | CC(C)c1ccc(C(=O)Nc2cc(CN3CCN(C)CC3)cc(C(F)(F)F)c2)cc1CNc1cncnc1 [Example 30, 4-isopropyl-N-(3-((4-methylpiperazin-1-yl)methyl)-5-(trifluoromethyl)phenyl)-3-((pyrimidin-5-ylamino)methyl)benzamide]
< 0.01 | < 0.03 | < 0.03 | < 0.01 | COc1ccc(NC(=O)c2ccc(C)c(CNc3cncnc3)c2)cc1C(F)(F)F [Example 31, N-(4-methoxy-3-(trifluoromethyl)phenyl)-4-methyl-3-((pyrimidin-5-ylamino)methyl)benzamide]
< 0.01 | < 0.03 | < 0.03 | < 0.01 | Cc1ccc(C(=O)Nc2cccc(C(F)(F)F)c2)cc1CNc1cncnc1 [Example 32, 4-methyl-3-((pyrimidin-5-ylamino)methyl)-N-(3-(trifluoromethyl)phenyl)benzamide]
 | < 0.03 | < 0.03 |  | O=C(Nc1cccc(C(F)(F)F)c1)c1ccc(F)c(CNc2cnc3[nH]ccc3c2)c1 [Example 33, 3-(((1H-pyrrolo[2,3-b]pyridin-5-yl)amino)methyl)-4-fluoro-N-(3-(trifluoromethyl)phenyl)benzamide]
< 0.01 | < 0.03 | < 0.03 | < 0.01 | Cc1ccc(C(=O)Nc2cccc(C(F)(F)F)c2)cc1CNc1cccnc1 [Example 34, 4-methyl-3-((pyridin-3-ylamino)methyl)-N-(3-(trifluoromethyl)phenyl)benzamide]
< 0.01 | < 0.03 | < 0.03 | < 0.01 | Cn1ccc(-c2cncc(NCc3cc(C(=O)Nc4cccc(OC(F)(F)F)c4)ccc3F)c2)n1 [Example 35, 4-fluoro-3-(((5-(1-methyl-1H-pyrazol-3-yl)pyridin-3-yl)amino)methyl)-N-(3-(trifluoromethoxy)phenyl)benzamide]
 | < 0.03 | < 0.03 |  | Cc1cn(-c2cc(NC(=O)c3ccc(C(F)F)c(CNc4cncnc4)c3)cc(C(F)(F)F)c2)cn1 [Example 36, 4-(difluoromethyl)-N-(3-(4-methyl-1H-imidazol-1-yl)-5-(trifluoromethyl)phenyl)-3-((pyrimidin-5-ylamino)methyl)benzamide]
< 0.01 | < 0.03 | < 0.03 | 0.01 to 0.015 | Cc1ccc(C(=O)Nc2cccc(OC(F)(F)F)c2)cc1CNc1cncnc1 [Example 37, 4-methyl-3-((pyrimidin-5-ylamino)methyl)-N-(3-(trifluoromethoxy)phenyl)benzamide]
< 0.01 | < 0.03 | < 0.03 | 0.01 to 0.015 | O=C(Nc1cccc(OC(F)(F)F)c1)c1ccc(F)c(CNc2cnc3[nH]ccc3c2)c1 [Example 38, 3-(((1H-pyrrolo[2,3-b]pyridin-5-yl)amino)methyl)-4-fluoro-N-(3-(trifluoromethoxy)phenyl)benzamide]
